# From PMC8401933 (Molecules, 2021)
# Experiments:
# Test in all cases: KINOMEscan binding
# Conditions in all cases: read-out: Percent Control
# WNK2 = biological target: T1, WNK2 (Homo sapiens, UniProt Q9Y3S1)
# T1 construct: purchased Eurofins DiscoverX KINOMEscan
# ALK = biological target: T2, ALK (Homo sapiens, UniProt Q9UM73)
# T2 construct: purchased Eurofins DiscoverX KINOMEscan
# ALK(C1156Y) = biological target: T3, ALK(C1156Y) (Homo sapiens, UniProt Q9UM73, C1156Y)
# T3 construct: purchased Eurofins DiscoverX KINOMEscan
# PIP5K1C = biological target: T4, PIP5K1C (Homo sapiens, UniProt O60331)
# T4 construct: purchased Eurofins DiscoverX KINOMEscan
# AMPK-alpha2 = biological target: T5, AMPK-alpha2 (Homo sapiens, UniProt P54646)
# T5 construct: purchased Eurofins DiscoverX KINOMEscan
# MAP4K2 = biological target: T6, MAP4K2 (Homo sapiens, UniProt Q12851)
# T6 construct: purchased Eurofins DiscoverX KINOMEscan
# GSK3B = biological target: T7, GSK3B (Homo sapiens, UniProt P49841)
# T7 construct: purchased Eurofins DiscoverX KINOMEscan
# NEK10 = biological target: T8, NEK10 (Homo sapiens, UniProt Q6ZWH5)
# T8 construct: purchased Eurofins DiscoverX KINOMEscan
# ADCK3 = biological target: T9, ADCK3 (Homo sapiens, UniProt Q8NI60)
# T9 construct: purchased Eurofins DiscoverX KINOMEscan
# MUSK = biological target: T10, MUSK (Homo sapiens, UniProt O15146)
# T10 construct: purchased Eurofins DiscoverX KINOMEscan
# MKNK2 = biological target: T11, MKNK2 (Homo sapiens, UniProt Q9HBH9)
# T11 construct: purchased Eurofins DiscoverX KINOMEscan
# MLK1 = biological target: T12, MLK1 (Homo sapiens, UniProt P80192)
# T12 construct: purchased Eurofins DiscoverX KINOMEscan
# CDKL5 = biological target: T13, CDKL5 (Homo sapiens, UniProt O76039)
# T13 construct: purchased Eurofins DiscoverX KINOMEscan
# CSNK1G2 = biological target: T14, CSNK1G2 (Homo sapiens, UniProt P78368)
# T14 construct: purchased Eurofins DiscoverX KINOMEscan
# PIK3C2G = biological target: T15, PIK3C2G (Homo sapiens, UniProt O75747)
# T15 construct: purchased Eurofins DiscoverX KINOMEscan
# MEK5 = biological target: T16, MEK5 (Homo sapiens, UniProt Q13163)
# T16 construct: purchased Eurofins DiscoverX KINOMEscan
# CSNK1A1 = biological target: T17, CSNK1A1 (Homo sapiens, UniProt P48729)
# T17 construct: purchased Eurofins DiscoverX KINOMEscan
# MAP3K1 = biological target: T18, MAP3K1 (Homo sapiens, UniProt Q13233)
# T18 construct: purchased Eurofins DiscoverX KINOMEscan
# MAK = biological target: T19, MAK (Homo sapiens, UniProt P20794)
# T19 construct: purchased Eurofins DiscoverX KINOMEscan
# CHEK1 = biological target: T20, CHEK1 (Homo sapiens, UniProt O14757)
# T20 construct: purchased Eurofins DiscoverX KINOMEscan
# PIK3CA(C420R) = biological target: T21, PIK3CA(C420R) (Homo sapiens, UniProt P42336, C420R)
# T21 construct: purchased Eurofins DiscoverX KINOMEscan
# MST3 = biological target: T22, MST3 (Homo sapiens, UniProt Q9Y6E0)
# T22 construct: purchased Eurofins DiscoverX KINOMEscan
# FLT3(D835Y) = biological target: T23, FLT3(D835Y) (Homo sapiens, UniProt P36888, D835Y)
# T23 construct: purchased Eurofins DiscoverX KINOMEscan
# PIK3C2B = biological target: T24, PIK3C2B (Homo sapiens, UniProt O00750)
# T24 construct: purchased Eurofins DiscoverX KINOMEscan
# CAMK2A = biological target: T25, CAMK2A (Homo sapiens, UniProt Q9UQM7)
# T25 construct: purchased Eurofins DiscoverX KINOMEscan
# CSNK1G1 = biological target: T26, CSNK1G1 (Homo sapiens, UniProt Q9HCP0)
# T26 construct: purchased Eurofins DiscoverX KINOMEscan
# YSK1 = biological target: T27, YSK1 (Homo sapiens, UniProt O00506)
# T27 construct: purchased Eurofins DiscoverX KINOMEscan
# [1] = biological target: T28, RSK4(Kin.Dom.2-C-terminal) (Homo sapiens, UniProt Q9UK32)
# T28 construct: RSK4(Kin.Dom.2-C-terminal); purchased Eurofins DiscoverX KINOMEscan
# TBK1 = biological target: T29, TBK1 (Homo sapiens, UniProt Q9UHD2)
# T29 construct: purchased Eurofins DiscoverX KINOMEscan
# TXK = biological target: T30, TXK (Homo sapiens, UniProt P42681)
# T30 construct: purchased Eurofins DiscoverX KINOMEscan
# CDK4 = biological target: T31, CDK4 (Homo sapiens, UniProt P11802)
# T31 construct: purchased Eurofins DiscoverX KINOMEscan
# [2] = biological target: T32, ABL1(F317I)-phosphorylated (Homo sapiens, UniProt P00519, F317I)
# T32 construct: purchased Eurofins DiscoverX KINOMEscan
# PFTAIRE2 = biological target: T33, PFTAIRE2 (Homo sapiens, UniProt Q96Q40)
# T33 construct: purchased Eurofins DiscoverX KINOMEscan
# TAOK1 = biological target: T34, TAOK1 (Homo sapiens, UniProt Q7L7X3)
# T34 construct: purchased Eurofins DiscoverX KINOMEscan
# PIK3CB = biological target: T35, PIK3CB (Homo sapiens, UniProt P42338)
# T35 construct: purchased Eurofins DiscoverX KINOMEscan
# ERN1 = biological target: T36, ERN1 (Homo sapiens, UniProt O75460)
# T36 construct: purchased Eurofins DiscoverX KINOMEscan
# SNARK = biological target: T37, SNARK (Homo sapiens, UniProt Q9H093)
# T37 construct: purchased Eurofins DiscoverX KINOMEscan
# ULK1 = biological target: T38, ULK1 (Homo sapiens, UniProt O75385)
# T38 construct: purchased Eurofins DiscoverX KINOMEscan
# MYLK2 = biological target: T39, MYLK2 (Homo sapiens, UniProt Q9H1R3)
# T39 construct: purchased Eurofins DiscoverX KINOMEscan
# MEK4 = biological target: T40, MEK4 (Homo sapiens, UniProt P45985)
# T40 construct: purchased Eurofins DiscoverX KINOMEscan
# [3] = biological target: T41, TYK2(JH2domain-pseudokinase) (Homo sapiens, UniProt P29597)
# T41 construct: TYK2(JH2domain-pseudokinase); purchased Eurofins DiscoverX KINOMEscan
# MLK3 = biological target: T42, MLK3 (Homo sapiens, UniProt Q16584)
# T42 construct: purchased Eurofins DiscoverX KINOMEscan
# LZK = biological target: T43, LZK (Homo sapiens, UniProt O43283)
# T43 construct: purchased Eurofins DiscoverX KINOMEscan
# T25 sequence (Q9UQM7 whole entry): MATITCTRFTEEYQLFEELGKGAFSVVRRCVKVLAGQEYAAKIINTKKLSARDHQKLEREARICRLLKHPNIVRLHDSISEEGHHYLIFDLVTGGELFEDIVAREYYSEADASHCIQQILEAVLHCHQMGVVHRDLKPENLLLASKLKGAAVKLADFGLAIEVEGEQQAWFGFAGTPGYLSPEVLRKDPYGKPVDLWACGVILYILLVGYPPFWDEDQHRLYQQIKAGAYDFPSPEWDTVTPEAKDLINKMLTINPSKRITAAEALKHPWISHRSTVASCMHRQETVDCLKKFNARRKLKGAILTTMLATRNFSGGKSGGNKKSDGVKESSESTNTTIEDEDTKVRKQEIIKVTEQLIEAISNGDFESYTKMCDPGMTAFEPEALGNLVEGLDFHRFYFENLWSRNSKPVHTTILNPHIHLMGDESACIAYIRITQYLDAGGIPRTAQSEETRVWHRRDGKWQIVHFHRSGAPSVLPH
# T30 sequence (P42681 whole entry): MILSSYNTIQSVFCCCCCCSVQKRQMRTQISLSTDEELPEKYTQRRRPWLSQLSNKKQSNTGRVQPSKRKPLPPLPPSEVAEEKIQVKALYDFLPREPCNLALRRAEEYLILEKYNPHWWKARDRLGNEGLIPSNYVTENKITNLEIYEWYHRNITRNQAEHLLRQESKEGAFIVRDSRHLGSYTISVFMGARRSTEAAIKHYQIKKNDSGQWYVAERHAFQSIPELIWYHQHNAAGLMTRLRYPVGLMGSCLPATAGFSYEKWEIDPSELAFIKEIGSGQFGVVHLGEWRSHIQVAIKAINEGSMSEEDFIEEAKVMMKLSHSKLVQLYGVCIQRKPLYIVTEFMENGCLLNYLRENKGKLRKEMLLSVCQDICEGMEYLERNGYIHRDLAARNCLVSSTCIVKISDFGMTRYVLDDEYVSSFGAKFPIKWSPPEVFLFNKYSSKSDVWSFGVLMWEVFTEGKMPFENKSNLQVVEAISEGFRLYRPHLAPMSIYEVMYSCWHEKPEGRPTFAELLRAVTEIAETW
# T40 sequence (P45985 whole entry): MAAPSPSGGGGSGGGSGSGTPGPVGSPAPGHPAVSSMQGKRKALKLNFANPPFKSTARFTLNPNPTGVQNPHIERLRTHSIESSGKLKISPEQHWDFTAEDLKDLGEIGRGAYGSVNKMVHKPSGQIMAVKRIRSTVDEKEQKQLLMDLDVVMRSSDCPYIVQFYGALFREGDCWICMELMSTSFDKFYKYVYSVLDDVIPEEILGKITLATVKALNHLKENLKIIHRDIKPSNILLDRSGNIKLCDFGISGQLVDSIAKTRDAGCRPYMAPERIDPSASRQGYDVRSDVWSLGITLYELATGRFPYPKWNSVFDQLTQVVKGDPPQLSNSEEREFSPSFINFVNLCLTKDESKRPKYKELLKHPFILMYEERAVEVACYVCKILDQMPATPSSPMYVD
# T35 sequence (P42338 whole entry): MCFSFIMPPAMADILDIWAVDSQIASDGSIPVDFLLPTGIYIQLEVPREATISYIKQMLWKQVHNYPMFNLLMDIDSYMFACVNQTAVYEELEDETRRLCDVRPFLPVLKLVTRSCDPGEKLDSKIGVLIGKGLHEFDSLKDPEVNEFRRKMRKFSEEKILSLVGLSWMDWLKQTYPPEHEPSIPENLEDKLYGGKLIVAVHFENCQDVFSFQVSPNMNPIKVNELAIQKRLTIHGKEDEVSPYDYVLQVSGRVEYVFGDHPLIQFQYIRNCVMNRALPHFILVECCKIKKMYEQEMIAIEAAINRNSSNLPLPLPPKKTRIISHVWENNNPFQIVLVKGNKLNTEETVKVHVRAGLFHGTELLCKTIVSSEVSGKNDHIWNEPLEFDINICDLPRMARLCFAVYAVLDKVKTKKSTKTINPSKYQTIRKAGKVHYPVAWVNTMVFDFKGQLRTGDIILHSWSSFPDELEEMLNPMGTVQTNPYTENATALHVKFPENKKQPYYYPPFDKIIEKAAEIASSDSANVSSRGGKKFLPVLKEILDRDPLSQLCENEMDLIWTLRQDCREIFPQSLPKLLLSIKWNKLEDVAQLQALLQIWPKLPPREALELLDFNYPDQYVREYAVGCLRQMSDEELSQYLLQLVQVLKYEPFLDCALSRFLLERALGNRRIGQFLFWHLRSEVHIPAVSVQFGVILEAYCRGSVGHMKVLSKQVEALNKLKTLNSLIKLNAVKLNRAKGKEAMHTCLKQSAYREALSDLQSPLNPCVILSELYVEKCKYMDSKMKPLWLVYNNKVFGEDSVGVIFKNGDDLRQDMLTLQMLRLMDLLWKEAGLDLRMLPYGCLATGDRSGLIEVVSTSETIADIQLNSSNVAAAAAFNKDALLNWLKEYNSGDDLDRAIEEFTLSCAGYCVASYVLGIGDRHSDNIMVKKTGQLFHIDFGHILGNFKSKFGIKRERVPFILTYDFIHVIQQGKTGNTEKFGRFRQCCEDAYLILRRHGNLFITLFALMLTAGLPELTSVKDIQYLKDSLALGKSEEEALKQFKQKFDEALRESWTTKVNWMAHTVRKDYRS
# T15 sequence (O75747 whole entry): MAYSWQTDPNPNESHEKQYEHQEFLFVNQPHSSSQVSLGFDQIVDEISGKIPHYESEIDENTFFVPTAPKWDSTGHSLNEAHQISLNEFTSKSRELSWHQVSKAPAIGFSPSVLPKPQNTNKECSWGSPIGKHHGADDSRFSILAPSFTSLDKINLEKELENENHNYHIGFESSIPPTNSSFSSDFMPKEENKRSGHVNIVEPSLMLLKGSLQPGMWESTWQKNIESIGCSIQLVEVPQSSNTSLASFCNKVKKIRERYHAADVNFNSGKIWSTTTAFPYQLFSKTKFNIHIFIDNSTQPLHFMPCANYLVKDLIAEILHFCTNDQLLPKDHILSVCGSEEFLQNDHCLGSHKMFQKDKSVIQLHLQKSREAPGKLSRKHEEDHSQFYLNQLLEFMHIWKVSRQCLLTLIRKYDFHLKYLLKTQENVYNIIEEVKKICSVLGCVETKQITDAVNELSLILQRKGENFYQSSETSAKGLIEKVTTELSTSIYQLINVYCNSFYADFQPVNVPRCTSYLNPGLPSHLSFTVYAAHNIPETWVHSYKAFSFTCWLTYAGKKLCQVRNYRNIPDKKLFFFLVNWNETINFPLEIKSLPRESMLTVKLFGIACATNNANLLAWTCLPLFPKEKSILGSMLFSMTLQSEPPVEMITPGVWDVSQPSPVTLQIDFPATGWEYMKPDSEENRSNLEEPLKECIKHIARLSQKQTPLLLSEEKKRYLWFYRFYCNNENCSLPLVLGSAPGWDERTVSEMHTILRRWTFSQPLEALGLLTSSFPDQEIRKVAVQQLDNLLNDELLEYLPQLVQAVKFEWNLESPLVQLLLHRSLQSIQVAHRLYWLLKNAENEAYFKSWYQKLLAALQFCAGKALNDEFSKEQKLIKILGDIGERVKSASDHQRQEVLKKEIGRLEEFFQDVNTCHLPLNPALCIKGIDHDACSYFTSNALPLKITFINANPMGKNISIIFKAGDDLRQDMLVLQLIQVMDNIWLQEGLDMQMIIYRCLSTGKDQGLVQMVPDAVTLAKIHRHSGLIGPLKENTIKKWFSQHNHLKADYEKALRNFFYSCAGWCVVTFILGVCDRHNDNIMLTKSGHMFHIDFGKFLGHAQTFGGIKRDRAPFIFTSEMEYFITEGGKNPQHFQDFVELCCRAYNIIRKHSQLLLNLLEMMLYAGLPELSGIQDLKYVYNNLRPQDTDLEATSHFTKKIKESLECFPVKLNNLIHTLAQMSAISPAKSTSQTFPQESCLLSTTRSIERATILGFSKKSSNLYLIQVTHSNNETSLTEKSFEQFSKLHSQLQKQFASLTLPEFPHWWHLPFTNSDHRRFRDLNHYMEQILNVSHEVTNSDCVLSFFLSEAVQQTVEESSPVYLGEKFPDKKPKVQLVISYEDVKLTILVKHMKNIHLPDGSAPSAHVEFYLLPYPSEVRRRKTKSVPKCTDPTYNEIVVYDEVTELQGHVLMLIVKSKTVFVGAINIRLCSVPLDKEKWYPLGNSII
# T11 sequence (Q9HBH9 whole entry): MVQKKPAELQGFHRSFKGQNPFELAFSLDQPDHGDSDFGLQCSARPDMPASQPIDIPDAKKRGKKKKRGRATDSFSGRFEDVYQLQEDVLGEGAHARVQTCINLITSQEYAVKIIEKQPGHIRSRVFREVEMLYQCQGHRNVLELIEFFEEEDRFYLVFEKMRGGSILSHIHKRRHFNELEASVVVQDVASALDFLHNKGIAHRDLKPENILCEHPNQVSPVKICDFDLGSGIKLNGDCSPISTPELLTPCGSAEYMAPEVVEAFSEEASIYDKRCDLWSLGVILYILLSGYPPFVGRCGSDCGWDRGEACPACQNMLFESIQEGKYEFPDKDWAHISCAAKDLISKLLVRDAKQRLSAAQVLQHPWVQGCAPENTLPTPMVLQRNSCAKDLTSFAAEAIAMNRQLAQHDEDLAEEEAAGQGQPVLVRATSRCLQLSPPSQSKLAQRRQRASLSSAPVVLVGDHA
# T28 sequence (Q9UK32 401-745 limits assumed): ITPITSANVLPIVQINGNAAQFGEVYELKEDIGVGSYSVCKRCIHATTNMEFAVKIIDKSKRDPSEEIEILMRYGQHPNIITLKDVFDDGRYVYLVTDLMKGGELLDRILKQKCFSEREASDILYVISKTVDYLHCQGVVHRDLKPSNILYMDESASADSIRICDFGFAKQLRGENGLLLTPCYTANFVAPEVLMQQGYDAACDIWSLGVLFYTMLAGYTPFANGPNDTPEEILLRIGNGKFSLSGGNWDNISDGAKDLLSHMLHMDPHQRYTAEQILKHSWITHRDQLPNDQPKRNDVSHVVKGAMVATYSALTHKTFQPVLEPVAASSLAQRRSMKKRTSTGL
smiles,measurement,setting,value
"CC(C)NC(=O)COc1cccc(-c2nc(Nc3ccc4[nH]ncc4c3)c3ccccc3n2)c1 [KD025, 2-(3-(4-((1H-indazol-5-yl)amino)quinazolin-2-yl)phenoxy)-N-isopropylacetamide]",remaining binding at 10 µM,WNK2,88%
same,remaining binding at 10 µM,ALK,54%
same,remaining binding at 10 µM,ALK(C1156Y),65%
same,remaining binding at 10 µM,PIP5K1C,47%
same,remaining binding at 10 µM,AMPK-alpha2,75%
same,remaining binding at 10 µM,MAP4K2,80%
same,remaining binding at 10 µM,GSK3B,100%
same,remaining binding at 10 µM,NEK10,96%
same,remaining binding at 10 µM,ADCK3,78%
same,remaining binding at 10 µM,MUSK,59%
same,remaining binding at 10 µM,MKNK2,68%
same,remaining binding at 10 µM,MLK1,87%
same,remaining binding at 10 µM,CDKL5,100%
same,remaining binding at 10 µM,CSNK1G2,60%
same,remaining binding at 10 µM,PIK3C2G,58%
same,remaining binding at 10 µM,MEK5,63%
same,remaining binding at 10 µM,CSNK1A1,80%
same,remaining binding at 10 µM,MAP3K1,85%
same,remaining binding at 10 µM,MAK,84%
same,remaining binding at 10 µM,CHEK1,100%
same,remaining binding at 10 µM,PIK3CA(C420R),86%
same,remaining binding at 10 µM,MST3,72%
same,remaining binding at 10 µM,FLT3(D835Y),46%
same,remaining binding at 10 µM,PIK3C2B,67%
same,remaining binding at 10 µM,CAMK2A,87%
same,remaining binding at 10 µM,CSNK1G1,70%
same,remaining binding at 10 µM,YSK1,70%
same,remaining binding at 10 µM,[1],88%
same,remaining binding at 10 µM,TBK1,66%
same,remaining binding at 10 µM,TXK,76%
same,remaining binding at 10 µM,CDK4,100%
same,remaining binding at 10 µM,[2],93%
same,remaining binding at 10 µM,PFTAIRE2,52%
same,remaining binding at 10 µM,TAOK1,71%
same,remaining binding at 10 µM,PIK3CB,89%
same,remaining binding at 10 µM,ERN1,98%
same,remaining binding at 10 µM,SNARK,71%
same,remaining binding at 10 µM,ULK1,100%
same,remaining binding at 10 µM,MYLK2,87%
same,remaining binding at 10 µM,MEK4,100%
same,remaining binding at 10 µM,[3],81%
same,remaining binding at 10 µM,MLK3,83%
same,remaining binding at 10 µM,LZK,100%
